# From patent publication US10233151B2, “Use of a novel 3-aryl-4-catechol-pyrrole-N-propanol compound and the derivatives thereof to treat cancer and diseases related to excessive angiogenesis” (Centre National de la Recherche Scientifique (CNRS), priority 2014, dated 2019)
# Experiments:
# [1] = system: caspases 3 and 7 in U87 cells; assay: Caspase 3 and 7 activity (ApoONE test), U87; format: cell-based, human; details: U87, normoxia, 24 hours, 1 μM to 50 μM
# Protocol: (§1) In order to specify whether compound (1) leads to apoptotic cell death, the activity of caspases 3 and 7, marker enzymes of apoptosis, was measured using the ApoONE test (Promega) in HCT-116, U87 and HL60 cells treated in normoxia for 24 hours with compound (1) at concentrations varying from 1 μM to 50 μM.
# MCF-7 cells = assay: Cell growth test (CellTiter-Blue), MCF-7; format: cell-based; details: Homo sapiens, MCF7; MCF-7, normoxia, 72 hours; read-out: IC50 (50% decrease in cell growth)
# Protocol: (§2) The biological activity of compound (1), as well as that of its structural analogues, was studied in vitro on 7 different cancer cell lines: • HCT-116 (colorectal cancer) • U87 (glioblastoma) • K562 (myeloid leukemia) and K562 R • MDA-MB 231 (mammary adenocarcinoma) • MCF-7 (mammary adenocarcinoma) • A549 (pulmonary alveolar adenocarcinoma)
# (§3) The cells selected for this study were incubated at 37° C. in the presence of compound (1) added in the culture medium at various concentrations and at various times. The set of experiments carried out made it possible to determine the degree of cytotoxicity of the compound tested (IC50), its capacity to induce cell death by apoptosis, in close dependence on extracellular superoxide anion for its activation.
# (§4) The effect of compound (1) on the growth of HCT-116, U87, K562, K562R, MDA-MB 231, MCF-7 and A549 cells, cultured in normoxia, was evaluated using a cell growth test (CellTiter-Blue™ Cell Viability Assay, Promega).
# [2] = EPR at 77 K, disappearance of the O2°- signal; details: KO2 2.5 mM in DMSO, dependent on concentration
# Protocol: In order to follow the direct interaction of compound (1) with superoxide anion, solid potassium superoxide (KO2) was dissolved by sonication in DMSO (final concentration 2.5 mM), then mixed with compound (1) and immediately cooled by immersion in liquid nitrogen. EPR analysis at 77 K (liquid nitrogen) was carried out with a MiniScope MS 100 EPR spectrometer, operating at a frequency of 9.5 GHz (X-band) with the following parameters: magnetic field: 336.0±49.8 mT; sweep time: 20 s; sampling: 4096 points; modulation amplitude: 0.10 mT; modulation frequency: 100 kHz; gain: 900; microwave power: 6 mW.
# [3] = system: caspases 3 and 7 in HCT-116 cells; assay: Caspase 3 and 7 activity (ApoONE test), HCT-116; format: cell-based
# Protocol: as §1
# (§5) In order to determine the role of superoxide anion, produced by the cells, in the activation of compound (1), HCT-116 cells were pretreated for 1 hour with the enzyme superoxide dismutase (SOD1) at 50 U/ml, then treated with compound (1). The cells were analyzed to evaluate, firstly, cell survival in normoxia (72 hours of treatment) and in hypoxia (48 hours of treatment). Secondly, the formation of condensed chromatin in normoxia and the activity of caspases 3 and 7 in normoxia were evaluated.
# U87 cells = assay: Cell growth test (CellTiter-Blue), U87; format: cell-based; details: Homo sapiens, U-87 MG; U87, normoxia, 72 hours; read-out: IC50 (50% decrease in cell growth)
# Protocol: as §2, §3, §4
# HCT-116 cells [4] = assay: Cell growth test (CellTiter-Blue), HCT-116; format: cell-based; details: Homo sapiens, HCT-116, 72 h, HCT-116, normoxia, 72 hours; read-out: IC50 (50% decrease in cell growth)
# Protocol: as §2
# as §3, with “activation. […]” for “activation.”
# A549 cells = assay: Cell growth test (CellTiter-Blue), A549; format: cell-based; details: Homo sapiens; A549, normoxia, 72 hours; read-out: IC50 (50% decrease in cell growth)
# Protocol: as §2, §3, §4
# MDA-MB 231 cells = assay: Cell growth test (CellTiter-Blue), MDA-MB 231; format: cell-based; details: Homo sapiens; MDA-MB 231, normoxia, 72 hours; read-out: IC50 (50% decrease in cell growth)
# Protocol: as §2, §3, §4
# HCT-116 cells [5] = assay: Condensed chromatin (Hoechst 33258) after SOD pretreatment; format: cell-based; details: HCT-116, SOD1 50 U/ml pretreatment, normoxia
# Protocol: as §5
# [6] = system: caspases 3 and 7 in HL60 cells; assay: Caspase 3 and 7 activity (ApoONE test), HL60; format: cell-based; details: HL60, normoxia, 24 hours, 1 μM to 50 μM
# Protocol: as §1
# HCT-116 cells [7] = assay: VEGF secretion by ELISA, HCT-116 culture supernatant; format: cell-based; details: HCT-116, normoxic and hypoxic (2% O2) conditions, concentrations of 5 to 50, 24 hours
# Protocol: At the tenth day of embryonic development, glioblastoma cells (U87, 5×10^6 in 20 μL) were deposited on the chorioallantoic membrane. Two days after the graft, compound (1) at a concentration of 50 μM in a volume of 20 μL was deposited on the surface of the tumor formed. This treatment was repeated every 24 hours for 5 days. The control group was treated with solvent. The test was carried out on 20 eggs bearing glioblastoma tumors for each group. Images of the tumors were taken at day 3 (24 hours after treatment), at day 5 (3 days after treatment) and at day 7 (5 days after treatment) of tumor development. […] In order to determine the antiangiogenic mechanism of compound (1), VEGF was assayed by the ELISA method (Invitrogen, Novex technology), from the culture supernatant of U87 and HCT-116 cells, under normoxic and hypoxic conditions.
# [8] = system: human endothelial cells (HUVEC); assay: De novo formation of vascular tubes on Matrigel; format: cell-based; details: HUVEC in Matrigel, 24 hours
# Protocol: In order to monitor the effect of compound (1) on “de novo” formation of vascular tubes, human endothelial cells (HUVEC) were cultured in a matrix (Matrigel), in the presence or absence of compound (1). After 24 hours, the effect of compound (1) is analyzed by optical microscopy and is illustrated by photographs. […] Compound (1) thus acts directly on growing endothelial cells by blocking the formation of capillaries, in contrast to the absence of effect on a capillary network already formed, in the “quiescent” state.
smiles,measurement,setting,value
OCCCn1cc(-c2ccccc2)c(-c2ccc(O)c(O)c2)c1 [compound (1)],activity of caspases 3 and 7,[1],significant activation of both caspases
same,IC50,MCF-7 cells,15 µM
same,EPR signal of superoxide anion,[2],decrease in the EPR signal of superoxide anion
same,activation of caspases 3-7 after SOD pretreatment,"[3]; HCT-116, SOD1 50 U/ml pretreatment, normoxia",completely suppressed
same,activity of caspases 3 and 7,"[3]; HCT-116, normoxia, 24 hours, 1 μM to 50 μM",significant activation of both caspases
same,IC50,U87 cells,7 µM
same,IC50,HCT-116 cells [4],7.5 µM
same,IC50,A549 cells,15 µM
same,IC50,MDA-MB 231 cells,20 µM
same,increase in condensed chromatin after SOD pretreatment,HCT-116 cells [5],completely suppresses the increase in condensed chromatin
same,activity of caspases 3 and 7,[6],strongest activation
same,VEGF secretion,HCT-116 cells [7],does not modify VEGF secretion
same,de novo formation of vascular tubes (capillaries),[8],prevents the formation of capillaries
